Test results published in ChEMBL document CHEMBL1152100, “Enzymatic synthesis of sialyl Lex and derivatives based on a recombinant fucosyltransferase” (Bioorg Med Chem Lett, 1991).

What was measured:
[1] = biological target: T1, Alpha-(1,3)-fucosyltransferase 10 (Homo sapiens) (UniProt Q6P4F1); assay: (§1) Acceptor substrate specificity toward Fucosyltransferase for the galactosides of GlcNAc with beta 1,3 or beta 1,4-linkages
T1 sequence (whole entry): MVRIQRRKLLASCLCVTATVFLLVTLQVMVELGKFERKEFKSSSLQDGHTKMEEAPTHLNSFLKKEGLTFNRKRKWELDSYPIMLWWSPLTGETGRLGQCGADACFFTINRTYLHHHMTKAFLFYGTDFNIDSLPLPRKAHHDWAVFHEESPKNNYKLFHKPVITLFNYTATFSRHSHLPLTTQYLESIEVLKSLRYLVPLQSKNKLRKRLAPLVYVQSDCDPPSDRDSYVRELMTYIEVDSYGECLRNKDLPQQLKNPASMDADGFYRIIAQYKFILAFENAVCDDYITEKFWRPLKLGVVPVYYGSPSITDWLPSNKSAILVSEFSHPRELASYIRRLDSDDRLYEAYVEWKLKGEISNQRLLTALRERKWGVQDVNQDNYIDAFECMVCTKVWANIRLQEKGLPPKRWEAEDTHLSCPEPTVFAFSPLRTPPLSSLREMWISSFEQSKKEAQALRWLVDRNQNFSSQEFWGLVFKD

[2] = biological target: Alpha-(1,3)-fucosyltransferase 10 (Homo sapiens) (UniProt Q6P4F1); assay: as §1; remark: listed apart in the source
[3] = biological target: T1, Alpha-(1,3)-fucosyltransferase 10 (Homo sapiens); assay: Compound was evaluated for acceptor substrate specificity toward Fucosyltransferase for the galactosides of GlcNAc with beta 1,3 or beta 1,4-linkages when applied 2 uM of GDP-Fuc consumed per hr.

Relative activity [1]	Relative activity [2]	Relative activity [3]	Molecule
5			OC[C@H]1OC(O)[C@H](O)[C@@H](O)[C@@H]1O (stereo not given in full)
3			CC(=O)N[C@H]1C(O)O[C@H](CO)[C@@H](O)[C@@H]1O (stereo not given in full)
23			CC(=O)N[C@@H]1[C@H](O[C@H]2[C@H](O)[C@H](NC(C)=O)C(O)O[C@H]2CO)O[C@@H](CO)[C@@H](O)[C@@H]1O (stereo not given in full)
7			OC[C@H]1OC=C[C@@H](O)[C@@H]1O
580			CC(=O)N[C@H]1[C@@H](O[C@@H]2O[C@@H](CO)[C@H](O)[C@H](O)[C@@H]2O)[C@H](O)[C@H](CO)O[C@H]1O
6			O=C[C@H](O)[C@@H](O)[C@@H](O)[C@H](O)CO
3			OC[C@@H]1OC(O)[C@@H](O)[C@H](O)[C@H]1O (stereo not given in full)

The next lines start with the molecule.

Molecule	Relative activity [1]	Relative activity [2]	Relative activity [3]
CC(=O)N[C@H]1C(O)O[C@H](CO)[C@H](O)[C@@H]1O (stereo not given in full)	4		
LACTOSE, ANHYDROUS		120	
CC(=O)N[C@@H]1[C@H](OC[C@@H]2O[C@@H](O[C@H]3[C@H](O)[C@H](O)C(O)O[C@H]3CO)[C@@H](O)[C@@H](O)[C@H]2O)O[C@@H](CO)[C@@H](O)[C@@H]1O (stereo not given in full)	13		
OC[C@@H]1O[C@@H](O[C@H]2[C@H](O)[C@H](O)[C@H](O)S[C@H]2CO)[C@@H](O)[C@@H](O)[C@H]1O	310		
CC(=O)N[C@H]1[C@H]([C@H](O)[C@H](O)CO)O[C@@](O[C@@H]2[C@H](O)[C@H](O[C@H]3[C@H](O)[C@H](NC(C)=O)C(O)O[C@H]3CO)O[C@@H](CO)[C@@H]2O)(C(=O)O)C[C@H]1O (stereo not given in full)	60		
OC[C@@H]1OC(O)[C@@H](O)[C@H](O)[C@@H]1O (stereo not given in full)	7		
C=CCO[C@@H]1O[C@@H](CO)[C@@H](O)[C@H](O)[C@@H]1O	< 1		
C[C@@H]1O[C@@H](O[C@@H]2[C@H](O[C@H]3[C@H](O)[C@H](O)[C@@H](O)O[C@H]3CO)O[C@@H](CO)[C@H](O)[C@@H]2O)[C@@H](O)[C@@H](O)[C@@H]1O	250		
OC[C@H]1S[C@H](O)[C@H](O)[C@@H](O)[C@@H]1O	7		
OC[C@H]1NC[C@H](O)[C@@H](O)[C@@H]1O	5		
CC(=O)N[C@@H]1[C@@H](O)[C@H](O[C@@H]2O[C@H](CO)[C@H](O)[C@H](O)[C@H]2O)[C@@H](CO)O[C@H]1O	27		100
OC[C@H]1OC=C[C@@H](O)[C@H]1O	2		
